Data on two molecules can be found in patent US20030207830A1, “Mutant NDP kinases for antiviral nucleotide analog activation and therapeutic uses thereof” (priority 2002, published 2003).

What is called Kd is the constant that tells how readily two partners part at equilibrium.

The target of assay [1] is T1, human NDP kinase A (NDPK-A, nm23-H1), wild type (Homo sapiens, UniProt P15531).
T1 construct: made in house
The assay can be described thus: Pre-steady-state phosphotransfer, fluorescence stopped-flow. It counts as biochemical. To be noted: catalytic efficiency of phosphotransfer, NDPK-A, pre-steady state. On the procedure:
FIG. 3 depicts the catalytic efficiency of NDPK-A and mutants for nucleoside analogs. The rates of phosphorylation of pure recombinant NDP kinases (1 μM) were measured at the pre-steady state in a fluorescence stopped-flow with d4T-TP (10 to 80 μM). The catalytic efficiency (expressed in M^−1s^−1) was determined from the variation of the rate as a function of analog as shown in FIG. 2 (▾, NDPK-A, ♦ L55H, ● N115S, ▪ L55H-N115S).
The activity assays were performed at the pre-steady state level.
Wild type human NDPK-A and the mutants were expressed and purified according to Schneider et al., 2000, Mol Pharm. Recombinant wild type and mutant Dd-NDPK were obtained as described (Schneid, 1998a), except for N119Y NDP kinase which was partially purified by Q sepharose FF chromatography. Each protein was characterized by […] electrophoresis. The concentration of 17 kDa subunits of the enzyme was either determined by Bradford assay ([…]) or using an absorbance coefficient of ΔA^280=1.249 for a 1 mg/mL solution of human wild type and N115S NDPK-A, and =0.55 for wild type and mutant N119S, N119T Dd-NDP kinases, respectively.
As the diphosphate form of analogs were not always available, the triphosphate analogs were used to study phosphate transfer in reaction as in Scheme I. Experiments were performed with an Hi-Tech DX2 microvolume stopped-flow reaction (Schneider, 1998) at Aexc=296 nm (for Ado derivatives) or […] (for other nucleotides), 2 mm excitation slit and a 320 nm cutoff filter at the emission. After mixing NDPK (1 μM) and NTP or an analogTP (10-500 μM), the intrinsic protein fluorescence was recorded for 10-200 sec. In each experiment, 400 pairs of data were recorded, and the data from 3-4 identical experiments were averaged and fitted to a number of non-linear analytical equations using the software provided by Hi-Tech.
The data were analyzed using the reaction scheme: [drawing 1]
In both the forward and the reverse reactions, the product concentration remains very low, thus the product binding can be neglected, and the observed single step could be attributed to the phosphotransfer (Schneider, 1998). The rate of this observed single step is: [formula]
and reaches a limiting value (k+2) at NTP saturation. […] Therefore, catalytic efficiencies of phosphorylation (CEphos=k+2/(k−1/k+1)=k+2/KS) were measured, which are equivalent to second order constants and allow a reliable comparison of a variety of NDP kinase substrates.

The target of assay [2] is T2, human NDP kinase A (NDPK-A) variant L55H-N115S, SEQ ID NO: 3 (Homo sapiens, UniProt P15531, L55H/N115S).
T2 construct: made in house; host or cells: E. coli
T2 sequence (P15531 whole entry L55H/N115S): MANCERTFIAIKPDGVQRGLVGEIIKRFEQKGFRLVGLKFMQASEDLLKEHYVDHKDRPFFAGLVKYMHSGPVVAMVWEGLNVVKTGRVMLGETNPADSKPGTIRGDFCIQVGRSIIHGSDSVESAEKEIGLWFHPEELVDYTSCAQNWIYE
Described as above. It counts as biochemical. As to conditions: for k2/Ks: catalytic efficiency of phosphotransfer, L55H-N115S, pre-steady state; for Specificity change (R): ratio of catalytic efficiencies analog vs natural nucleotide, mutant vs wild type.

Assay [3] concerns the target T3, human NDP kinase A (NDPK-A) variant N115S, SEQ ID NO: 2 (Homo sapiens, UniProt P15531, N115S).
T3 construct: made in house; host or cells: E. coli
The assay is described as above. It counts as biochemical. As to conditions: for k2/Ks: catalytic efficiency of phosphotransfer, N115S, pre-steady state; for Specificity change (R): ratio of catalytic efficiencies analog vs natural nucleotide, mutant vs wild type.

Assay [4] deals with T4, Dictyostelium discoideum NDP kinase inactive variant EI (H122G-F64W) (Dictyostelium discoideum, UniProt P22887, F64W/H122G).
T4 construct: made in house
T4 sequence (P22887 whole entry F64W/H122G): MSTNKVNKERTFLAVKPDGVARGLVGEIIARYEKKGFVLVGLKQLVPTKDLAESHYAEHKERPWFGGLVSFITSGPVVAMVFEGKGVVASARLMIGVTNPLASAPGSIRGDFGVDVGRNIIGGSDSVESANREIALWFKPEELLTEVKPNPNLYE
The assay can be described thus: biochemical. Format: binding. On the procedure:
(§1) The binding constants were determined at equilibrium by recording the increase in fluorescence (Schneider, 2000).
(§2) Analog binding affinity was measured using a variant of Dd-NDPK (EI) as described (Schneider, 2000). […] The mutation N119S was inserted in EI in order to measure the nucleotide affinity by fluorescence titration.
(§3) Altered bases as compared to the wild type sequence are underlined in bold. Sequences were checked by automatic sequencing. The mutant EI-N119S was obtained by mutation of the previously described F64W-H122G mutated NDP kinase (here called EI) (Schneider 2000).

Assay [5] has as its target T5, Dictyostelium discoideum NDP kinase inactive variant EI-N119S (H122G-F64W-N119S) (Dictyostelium discoideum, UniProt P22887, F64W/H122G/N119S).
T5 construct: made in house
Briefly: biochemical. To be noted: for increase of affinity by Ser (N119S): relative KD, EI versus EI-N119S. Format: binding. How it is done:
as §1, §2, §3

Assay [6] has as its target T6, Inactive-N119S Dd-NDPK (EI-N119S) (Dictyostelium discoideum, UniProt P22887, F64W/H122G/N119S).
T6 construct: made in house
The assay can be described thus: Equilibrium fluorescence titration of nucleotide binding, inactive Dd-NDPK variant with N119S. To be noted: relative affinity of NTP for both enzymes. On the procedure:
All numbers in italics have already been published (Schneider, 1998, 2000) The kinetic constants were measured at the pre-steady-state level using a fluorescence stopped-flow device. The binding constants were determined at equilibrium by recording the increase in fluorescence (Schneider, 2000). Values are the average of three independent determinations.
In contrast to what is observed with natural nucleotides, the Ser mutation specifically improves the catalytic efficiency with nucleotides analogs as shown in Table I; ddGTPs and AZT-TP react, respectively, 1.5 and 4 times faster with the N119S enzyme. […] Analog binding affinity was measured using a variant of Dd-NDPK (EI) as described (Schneider, 2000). This mutant (H122G-F64W) lacks the catalytic histidine, and a tryptophan replaces the phenylalanine stacking on the base in the active site (Schneider, 2000). The mutation N119S was inserted in EI in order to measure the nucleotide affinity by fluorescence titration. The Ser contribution to the binding was evaluated from the relative affinity of NTP for both enzymes (Table I).
for N119S, N119T and N119Y mutations, respectively. Altered bases as compared to the wild type sequence are underlined in bold. Sequences were checked by automatic sequencing. The mutant EI-N119S was obtained by mutation of the previously described F64W-H122G mutated NDP kinase (here called EI) (Schneider 2000).

T3 sequence (P15531 whole entry N115S): as the sequence (P15531 whole entry L55H/N115S) above, with H55L counted along it
T5 sequence (P22887 whole entry F64W/N119S/H122G): as the sequence (P22887 whole entry F64W/H122G) above, with N119S counted along it
T1 sequence (P15531 whole entry): as the sequence (P15531 whole entry L55H/N115S) above, with H55L, S115N counted along it
T6 sequence (P22887 whole entry F64W/N119S/H122G): as the sequence (P22887 whole entry F64W/H122G) above, with N119S counted along it

On to `Cc1cn([C@H]2C[C@H](N=[N+]=[N-])[C@@H](COP(=O)(O)OP(=O)(O)OP(=O)(O)O)O2)c(=O)[nH]c1=O` [AZT-TP], for which the k2/Ks stood at 75 M⁻¹ s⁻¹ in assay [1], 6770 M⁻¹ s⁻¹ in assay [2] and 900 M⁻¹ s⁻¹ in assay [3]. For the same molecule, the “Specificity change (R)” value in assay [2] is given as “(240)”; in assay [3] it was “(125)”. Besides, the equilibrium dissociation constant (Kd) was found to be 30000 nM in assay [4] and 2200 nM in assay [5]. The “increase of affinity by Ser (N119S)” value in assay [5] came to 15 fold. Also, in assay [6], the “factor by which Ser 119 reinforces affinity (EI-N119S versus EI)” value is 15 fold.
Take `Nc1nc2c(ncn2[C@H]2CC[C@@H](COP(=O)(O)OP(=O)(O)OP(=O)(O)O)O2)c(=O)[nH]1` [ddGTP, dideoxy-GTP]: the results for the k2/Ks in assay [1], in assay [2] and in assay [3] were 190 M⁻¹ s⁻¹, 4200 M⁻¹ s⁻¹ and 750 M⁻¹ s⁻¹, respectively. Moreover, the “Specificity change (R)” value in assay [2] is recorded as “(160)”; in assay [3] it was “(60)”. Further, the values for the Kd in assay [4] and in assay [5] were 3500 nM and 2000 nM, respectively. In addition, the “increase of affinity by Ser (N119S)” value in assay [5] is listed as 2 fold. Further, the “factor by which Ser 119 reinforces affinity (EI-N119S versus EI)” value in assay [6] was 2 fold.
